Tests used:
[1] = system: lambsquarters; test: Test C pre-/postemergence herbicide test; type: in vivo, Chenopodium album; conditions: for Plant response rating, Lambsquarters: preemergence; for Lambsquarters plant response rating: Preemergence, 500 g ai/ha, scale 0 to 100, 0 no effect, 100 complete control
Procedure, shortened: (§1)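 Emerged plants at the 1- to 4-leaf stage (2–18 cm), or freshly planted seeds, received test chemicals in a non-phytotoxic solvent mixture with surfactant. Response was visually scored against controls after 12 to 14 days in the greenhouse, on a 0 (no effect) to 100 (complete control) scale.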

[2] = system: corn; test: Test C pre-/postemergence herbicide test; type: in vivo, Zea mays; conditions: for Plant response rating, Corn: preemergence; for Corn plant response rating: Preemergence, 500 g ai/ha, scale 0 to 100, 0 no effect, 100 complete control
Procedure, shortened: as §1

[3] = system: johnsongrass; test: Test C pre-/postemergence herbicide test; type: in vivo, Sorghum halepense; conditions: for Plant response rating, Johnsongrass: preemergence; for Johnsongrass plant response rating: Preemergence, 500 g ai/ha, scale 0 to 100, 0 no effect, 100 complete control
Procedure, shortened: as §1

[4] = system: eastern black nightshade; test: Test C pre-/postemergence herbicide test; type: in vivo, Solanum ptycanthum; conditions: for Plant response rating, Nightshade: preemergence; for Nightshade plant response rating: Preemergence, 500 g ai/ha, scale 0 to 100, 0 no effect, 100 complete control
Procedure, shortened: as §1

[5] = system: kochia; test: Test C pre-/postemergence herbicide test; type: in vivo, Kochia scoparia; conditions: for Plant response rating, Kochia: preemergence; for Kochia plant response rating: Preemergence, 500 g ai/ha, scale 0 to 100, 0 no effect, 100 complete control
Procedure, shortened: as §1

[6] = system: woolly cupgrass; test: Test C pre-/postemergence herbicide test; type: in vivo, Eriochloa villosa; conditions: for Plant response rating, Cupgrass, Woolly: preemergence; for Cupgrass, Woolly plant response rating: Preemergence, 500 g ai/ha, scale 0 to 100, 0 no effect, 100 complete control
Procedure, shortened: as §1

[7] = system: common (oilseed) sunflower; test: Test C pre-/postemergence herbicide test; type: in vivo, Helianthus annuus; conditions: for Plant response rating, Sunflower: preemergence; for Sunflower plant response rating: Preemergence, 500 g ai/ha, scale 0 to 100, 0 no effect, 100 complete control
Procedure, shortened: as §1

[8] = system: Surinam grass; test: Test C pre-/postemergence herbicide test; type: in vivo, Urochloa decumbens; conditions: for Plant response rating, Surinam Grass: preemergence; for Surinam Grass plant response rating: Preemergence, 500 g ai/ha, scale 0 to 100, 0 no effect, 100 complete control
Procedure, shortened: as §1

[9] = system: barnyardgrass; test: Test A pre-/postemergence herbicide test; type: in vivo, Echinochloa crus-galli
Procedure, shortened: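 Both application timings were run together: directed soil spray over freshly planted seeds in sandy loam, and runoff spray onto 2–10 cm seedlings. Evaluation after ~10 days in greenhouse used a 0–100 visual scale versus untreated controls.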

[10] = system: cocklebur; test: Test C pre-/postemergence herbicide test; type: in vivo, Xanthium strumarium; conditions: for Plant response rating, Cocklebur: preemergence; for Cocklebur plant response rating: Preemergence, 500 g ai/ha, scale 0 to 100, 0 no effect, 100 complete control
Procedure, shortened: as §1

[11] = 125 g ai/ha, scale 0 (no effect) to 100 (complete control), visual, 12 to 14 days
[12] = Postemergence, 500 g ai/ha, 0 to 100 scale, 0 no effect, 100 complete control
[13] = Postemergence, 2000 g ai/ha, 0 to 100 scale, 0 no effect, 100 complete control
[14] = Preemergence, 2000 g ai/ha, visual rating, 0 to 100 scale (0 no effect, 100 complete control)
[15] = 250 g ai/ha, scale 0 to 100 (0 no effect, 100 complete control), visual, 12 to 14 days

Compound: C=CCNC(=O)c1cccc(NC(=O)c2sc(C(C)(C)C)nc2C)c1 [Compound 202]
- Plant response rating, Lambsquarters ([1]; 62 g ai/ha, scale 0 to 100): 40
- Plant response rating, Lambsquarters [1, 11]: 90
- Plant response rating, Lambsquarters ([1]; 250 g ai/ha, scale 0-100): 100
- Lambsquarters plant response rating [1]: 100
- Plant response rating, Corn ([2]; 62 g ai/ha, scale 0 to 100): 0
- Plant response rating, Corn [2, 11]: 0
- Plant response rating, Corn ([2]; 250 g ai/ha, scale 0-100): 0
- Corn plant response rating [2]: 10
- Plant response rating, Johnsongrass ([3]; 62 g ai/ha, scale 0 to 100): 0
- Plant response rating, Johnsongrass [3, 11]: 40
- Plant response rating, Johnsongrass ([3]; 250 g ai/ha, scale 0-100): 70
- Johnsongrass plant response rating [3]: 75
- Plant response rating, Nightshade ([4]; 62 g ai/ha, scale 0 to 100): 20
- Plant response rating, Nightshade [4, 11]: 95
- Plant response rating, Nightshade ([4]; 250 g ai/ha, scale 0-100): 100
- Nightshade plant response rating [4]: 100
- Plant response rating, Kochia ([5]; 62 g ai/ha, scale 0 to 100): 60
- Plant response rating, Kochia [5, 11]: 85
- Plant response rating, Kochia ([5]; 250 g ai/ha, scale 0-100): 85
- Kochia plant response rating [5]: 95
- Plant response rating, Cupgrass, Woolly ([6]; 62 g ai/ha, scale 0 to 100): 0
- Plant response rating, Cupgrass, Woolly [6, 11]: 10
- Plant response rating, Cupgrass, Woolly ([6]; 250 g ai/ha, scale 0-100): 20
- Cupgrass, Woolly plant response rating [6]: 60
- Plant response rating, Sunflower ([7]; 62 g ai/ha, scale 0 to 100): 0
- Plant response rating, Sunflower [7, 11]: 0
- Plant response rating, Sunflower ([7]; 250 g ai/ha, scale 0-100): 10
- Sunflower plant response rating [7]: 10
- Plant response rating, Surinam Grass ([8]; 62 g ai/ha, scale 0 to 100): 10
- Plant response rating, Surinam Grass [8, 11]: 20
- Plant response rating, Surinam Grass ([8]; 250 g ai/ha, scale 0-100): 40
- Surinam Grass plant response rating [8]: 60
- Barnyardgrass plant response rating [9, 12]: 45
- Plant response rating, Barnyardgrass [9, 13]: 80
- Barnyardgrass plant response rating [9, 14]: 80
- Barnyardgrass plant response rating ([9]; preemergence, 500 g ai/ha, visual injury, 0 to 100 scale (0 no effect, 100 complete control)): 45
- Plant response rating, Cocklebur ([10]; 62 g ai/ha, scale 0 to 100): 0
- Plant response rating, Cocklebur [10, 11]: 0
- Plant response rating, Cocklebur ([10]; 250 g ai/ha, scale 0-100): 10
- Cocklebur plant response rating [10]: 20

Compound: CCNC(=O)c1cc(C)nc(NC(=O)c2cc(C(C)(C)C)nn2CC)c1 [Compound 149]
- Plant response rating, Lambsquarters ([1]; 62 g ai/ha, scale 0 to 100): 75
- Plant response rating, Lambsquarters [1, 11]: 95
- Lambsquarters plant response rating [1]: 95
- Plant response rating, Corn ([2]; 62 g ai/ha, scale 0 to 100): 0
- Plant response rating, Corn [2, 11]: 0
- Plant response rating, Corn [2, 15]: 10
- Corn plant response rating [2]: 10
- Plant response rating, Johnsongrass ([3]; 62 g ai/ha, scale 0 to 100): 10
- Plant response rating, Johnsongrass [3, 11]: 60
- Johnsongrass plant response rating [3]: 100
- Plant response rating, Nightshade ([4]; 62 g ai/ha, scale 0 to 100): 80
- Plant response rating, Nightshade [4, 11]: 80
- Nightshade plant response rating [4]: 95
- Plant response rating, Kochia ([5]; 62 g ai/ha, scale 0 to 100): 0
- Plant response rating, Kochia [5, 11]: 10
- Kochia plant response rating [5]: 90
- Plant response rating, Cupgrass, Woolly ([6]; 62 g ai/ha, scale 0 to 100): 0
- Plant response rating, Cupgrass, Woolly [6, 11]: 5
- Plant response rating, Cupgrass, Woolly [6, 15]: 20
- Cupgrass, Woolly plant response rating [6]: 70
- Plant response rating, Sunflower ([7]; 62 g ai/ha, scale 0 to 100): 0
- Plant response rating, Sunflower [7, 11]: 0
- Sunflower plant response rating [7]: 0
- Plant response rating, Surinam Grass ([8]; 62 g ai/ha, scale 0 to 100): 0
- Plant response rating, Surinam Grass [8, 11]: 5
- Surinam Grass plant response rating [8]: 85
- Barnyardgrass plant response rating [9, 12]: 45
- Plant response rating, Barnyardgrass [9, 13]: 65
- Barnyardgrass plant response rating ([9]; Preemergence, 500 g ai/ha, visual rating, 0 to 100 scale (0 no effect, 100 complete control)): 70
- Barnyardgrass plant response rating [9, 14]: 90
- Plant response rating, Cocklebur ([10]; 62 g ai/ha, scale 0 to 100): 0
- Plant response rating, Cocklebur [10, 11]: 0
- Plant response rating, Cocklebur [10, 15]: 0
- Cocklebur plant response rating [10]: 0

Reference: patent publication US20060069132A1, “Azolecarboxamide herbicides” (priority 2004, published 2006)
